Ends that are not written are not given here.
What was measured:
[1] = tested on: Akt Ser473 phosphorylation; assay: Western blot of Akt Ser473 phosphorylation in HaCaT cells; format: cell-based, human; details: 12 μM, 4 h; unstimulated and 2 μg/ml polyIC
Procedure: Protein levels were corrected for loading differences (β-tubulin) and normalized to untreated control cells. […] Bar, 5 μm.
The multiple myeloma cell lines JJN-3 (gift from J. Ball, University of Birmingham, United Kingdom) were grown in RPMI 1640 (Sigma-Aldrich, Schnelldorf, Germany) supplemented with 10% FCS, 2 mM glutamine (Sigma-Aldrich), 2.5 μg/ml amphotericin B (Sigma-Aldrich) and 100 μg/ml gentamicin (Invitrogen, Carlsbad, Calif., USA). HaCaT cells (spontaneously transformed keratinocytes) were cultured in DMEM (Sigma-Aldrich) containing FCS, glutamine, amphotericin B, and gentamicin. All cells were cultured at 37° C. in a humidified atmosphere of 5% CO2.
Mononucleated cells were seeded and stimulated as described above. JJN-3 cells were treated with ATX-101 (6 μM) for 4 h. HaCaT cells were treated with ATX-101 (12 μM), polylC (2 μg/ml), and LPS (100 ng/ml) for 4 h. […] The proteins were visualized with the Odyssey infrared imaging system (LI-COR) and quantified using Odyssey Image Studio V2. […]

[2] = tested on: peripheral blood monocytes; assay: Multiplex (27-plex) cytokine secretion of TLR-ligand stimulated peripheral blood monocytes; format: cell-based, human; details: 4 h
Procedure: Measured cytokine levels were normalized to cytokine levels from monocytes stimulated with TLR ligand alone. A two fold or higher increase in cytokine level after TLR stimulation was defined as cytokine induction. […] Isolated monocytes were stimulated with 10 ng/ml LPS and 40 μg/ml polyIC alone and in combination with 4 μM ATX-101 for 4 h. […] DRAQS was used for nuclear staining. Bar, 5 μm.
Data is from one representative donor out of three; and (B-E) show multiplex analysis of cytokine levels produced by peripheral blood monocytes stimulated with 10 ng/ml LPS (B and D, same donor) and 40 μg/ml polyIC (C and E, same donor) after 4 h. (B and C) Stimulated-monocytes were treated with 4 μM ATX-101, 10 μM SB203580 (p38 MAPK inhibitor), and combination of ATX-101 and SB203580. (D and E) Stimulated-monocytes were treated with 4 μM ATX-101, 5 and 10 μM LY294002 (PI3K class I inhibitor), and combination of ATX-101 and LY294002. Measured cytokine levels were normalized to cytokine levels from monocytes stimulated with TLR ligand alone. A two fold or higher increase in cytokine level after TLR stimulation was defined as cytokine induction. # Value is too low to be visible in the column diagram; ? cytokine measurement was out of range. Data is from representative experiments out of two.
(§1) Measured cytokine levels were normalized to cytokine levels from monocytes stimulated with TLR ligand alone. A two fold or higher increase in cytokine level after TLR stimulation was defined as cytokine induction. ? Cytokine measurement was out of range. Data is from one experiment out of two.
Measured cytokine levels were normalized to cytokine levels from monocytes stimulated with TLR ligand alone. Data is from one donor. We obtained similar results for IL-6 secretion in two other donors.
as §1, with “# Value is too low to be visible in the column diagram; 0” for “?”
Peripheral blood mononuclear cells were isolated from A+ buffy coats (Blood Bank, St. Olav's University Hospital, Trondheim, Norway) by density gradient centrifugation (Lymphoprep; Axis-Shield PoC, Oslo, Norway). Mononucleated cells were seeded at 4 million cells/ml in serum-free RPMI 1640 supplemented with glutamine and gentamicin. After 60-90 min the adherent cell population was washed before cultured in medium with 10% heat-inactivated human serum (Blood Bank, St. Olav's University Hospital). ATX-101 (4 μM [Innovagen, Lund, Sweden]), ATX-A (4 μM, [Innovagen]) (ATX-A is represented in SEQ ID NO: 1206 and contains the motif RALVK (SEQ ID NO: 1207), which is not capable of interacting with PCNA), p38 inhibitor (SB203580, 10 μM, [Sigma-Aldrich]), PI3K inhibitor (LY294002, 5 and 10 μM, [Sigma-Aldrich]), and Akt inhibitor (Akt inhibitor XVIII SC66, 1 μg/ml, [Sigma-Aldrich]) were added in serum-free medium and incubated for 5 min before LPS (10 ng/ml, [Sigma-Aldrich]), polylC (40 μg/ml, [GE Healthcare, Little Chalfont, UK]), PAM3Cys (10 ng/ml, [Invivogen, San Diego, Calif., USA]) or R848 (10 μg/ml, [Invivogen]) were added in serum-containing medium. The cells were incubated for 4 h before the supernatants were harvested and frozen prior to further cytokine analysis by the 27-plex assay (Bio-Plex ProTM Human cytokine 27-plex assay).

Substance: Ac-MDRWLVKWKKKRKIRRRRRRRRRRR [ATX-101]
- Akt phosphorylation in HaCaT cells [1]: reduced Akt phosphorylation in unstimulated and stimulated cells
- cytokine secretion, combination of ATX-101 and p38 MAPK inhibitor ([2]; LPS or polyIC, 4 μM ATX-101 + 10 μM SB203580): increased reduction of most cytokines
- cytokine secretion, combination of ATX-101 and PI3K inhibitor LY294002 ([2]; LPS or polyIC, 4 μM ATX-101 + 5 and 10 μM LY294002): reduction in the secretion of some cytokines
- cytokine secretion from stimulated monocytes, single agent ([2]; LPS or polyIC, ATX-101 4 μM, SB203580 10 μM, LY294002 5 and 10 μM, SC66 1 μg/ml): reduced cytokine secretion
- basal level production of CXCL10 ([2]; isolated monocytes, 4 μM): decreased
- basal level of IL-12 ([2]; monocytes, 4 μM): reduced the basal level of IL-12
- secretion of LPS-induced cytokines ([2]; monocytes, 4 μM, 10 ng/ml LPS): efficiently reduced
- secretion of CXCL10, CCL2, CCL3 and CCL4 after TLR3 stimulation with polyIC ([2]; monocytes, 4 μM, 40 μg/ml polyIC): reduced the secretion of CXCL10, CCL2, CCL3, and CCL4

— patent publication US11246907B2, “Immunosuppressive agents and their use in therapy” (Norwegian University of Science and Technology, priority 2013, dated 2022)
